From US20210222225A1, “Medium for Disk Diffusion Method to Evaluate Antibiotic Sensitivity” (priority 2018, published 2021)

How the values were obtained:
[1] = system: colistin-resistant (R) Acinetobacter calcoaceticus-baumannii complex (ACB) strain; assay: Colistin disk diffusion on modified Mueller-Hinton agar, ACB-R; format: cell-based
Experimental: (§1) To each MHA thus modified was added protamine (Sigma-Aldrich, St Louis, Mo., USA) at a concentration of 100 μg/ml, and solidification was performed. Then, on a surface of the medium was evenly inoculated each of colistin-susceptible (S) or -resistant (R) Acinetobacter calcoaceticus-baumannii complex (ACB) strain, Pseudomonas aeruginosa ATCC27853 strain, Escherichia coli ATCC25922 strain, and mcr-1-harboring Enterobacter aerogenes strain, and a colistin disk was placed thereon. Subsequently, a diameter of a growth inhibition zone (colistin inhibition zone), which had been formed clear by diffusion of colistin to the agar around the colistin disk, was measured.
(§2) As in Example 1, a concentration of agar particles (BD Diagnostic, Sparks, Md., USA) in Mueller-Hinton broth medium (BD Diagnostic) was adjusted to 17 g/L or 5.1 g/L that is 30% of 17 g/L. To select a concentration of protamine, which can enhance diffusion of colistin from a disk without interfering with bacterial growth, while using the protamine at various concentrations, protamine (Sigma-Aldrich, St Louis, Mo., USA) was added to the medium at concentrations of 1 mg/ml, 700 μg/ml, 400 μg/ml, 300 μg/ml, 200 μg/ml, 150 μg/ml, 100 μg/ml, and 50 μg/ml. Each medium thus modified was solidified. Then, on a surface of each medium was evenly inoculated each of colistin-susceptible (S) or -resistant (R) Acinetobacter calcoaceticus-baumannii complex (ACB) strain, Pseudomonas aeruginosa ATCC27853 strain, and mcr-1-harboring Enterobacter aerogenes strain, and a colistin disk was placed thereon. Then, it was determined whether each strain was grown, and a diameter of a growth inhibition zone, which had been formed around the disk, was measured.

[2] = system: Pseudomonas aeruginosa ATCC27853 strain; assay: Colistin disk diffusion on modified Mueller-Hinton agar, PAE; format: cell-based
Experimental: as §1, §2

ABA A14_S = assay: Colistin disk diffusion, guanidine hydrochloride medium, A14_S; format: cell-based, Acinetobacter baumannii; conditions: 30% agar
Experimental: (§3) A concentration of agar particles (BD Diagnostic, Sparks, Md., USA) in Mueller-Hinton broth medium (BD Diagnostic) was adjusted to 5.1 g/L, which is 30% of 17 g/L, and guanidine hydrochloride was added to a concentration of 500 μg/ml, 50 μg/ml, or 5 μg/ml. Then, solidification was performed. On a surface of each medium thus prepared was evenly inoculated each of colistin-susceptible (S) or -resistant (R) Acinetobacter baumannii (ABA) strain, colistin-susceptible (S) or -resistant (R) Klebsiella pnemoniae (KPN) strain, and colistin-susceptible (S) or -resistant (R) Pseudomonas aeruginosa (PAE) strain, and a colistin disk was placed thereon. Then, pictures of a growth inhibition zone, which had been formed clear, around the disk were taken for each strain, and the results are illustrated in FIGS. 8 to 10.

KPN K4056_R = assay: Colistin disk diffusion, guanidine hydrochloride medium, K4056_R; format: cell-based, Klebsiella pnemoniae; conditions: 30% agar
Experimental: as §3

PAE P1401_S = assay: Colistin disk diffusion, guanidine hydrochloride medium, P1401_S; format: cell-based, Pseudomonas aeruginosa; conditions: 30% agar
Experimental: as §3

PAE P1618_R = assay: Colistin disk diffusion, guanidine hydrochloride medium, P1618_R; format: cell-based, Pseudomonas aeruginosa; conditions: 30% agar
Experimental: as §3

[3] = 30% agar, protamine 1,000 μg/ml
[4] = 100% agar, protamine 1,000 μg/ml
[5] = guanidine hydrochloride 5 μg/ml
[6] = guanidine hydrochloride 50 μg/ml
[7] = guanidine hydrochloride 500 μg/ml

colistin
Disk diffusion (mm) ([1]; 30% agar, protamine 50 μg/ml): 13 mm
Diameter (mm) of colistin inhibition zone ([1]; 30% agar, protamine 100 μg/ml): 11 mm
Disk diffusion (mm) ([1]; 30% agar, protamine 100 μg/ml): 11 mm
Disk diffusion (mm) ([1]; 30% agar, protamine 150 μg/ml): 10 mm
Disk diffusion (mm) ([1]; 30% agar, protamine 200 μg/ml): 8 mm
Disk diffusion (mm) ([1]; 30% agar, protamine 300 μg/ml): 6 mm
Disk diffusion (mm) ([1]; 30% agar, protamine 400 μg/ml): 6 mm
Disk diffusion (mm) ([1]; 30% agar, protamine 700 μg/ml): 6 mm
Disk diffusion (mm) [1, 3]: 6 mm
Diameter (mm) of colistin inhibition zone ([1]; 40% agar, protamine 100 μg/ml): 11 mm
Diameter (mm) of colistin inhibition zone ([1]; 50% agar, protamine 100 μg/ml): 10 mm
Diameter (mm) of colistin inhibition zone ([1]; 60% agar, protamine 100 μg/ml): 13 mm
Diameter (mm) of colistin inhibition zone ([1]; 70% agar, protamine 100 μg/ml): 11 mm
Diameter (mm) of colistin inhibition zone ([1]; 80% agar, protamine 100 μg/ml): 12 mm
Diameter (mm) of colistin inhibition zone ([1]; 90% agar, protamine 100 μg/ml): 12 mm
Disk diffusion (mm) ([1]; 100% agar, protamine 50 μg/ml): 13 mm
Diameter (mm) of colistin inhibition zone ([1]; 100% agar, protamine 100 μg/ml): 11 mm
Disk diffusion (mm) ([1]; 100% agar, protamine 100 μg/ml): 12 mm
Disk diffusion (mm) ([1]; 100% agar, protamine 150 μg/ml): 13 mm
Disk diffusion (mm) ([1]; 100% agar, protamine 200 μg/ml): 12 mm
Disk diffusion (mm) ([1]; 100% agar, protamine 300 μg/ml): 12 mm
Disk diffusion (mm) ([1]; 100% agar, protamine 400 μg/ml): 13 mm
Disk diffusion (mm) ([1]; 100% agar, protamine 700 μg/ml): 6 mm
Disk diffusion (mm) [1, 4]: 6 mm
Disk diffusion (mm) ([2]; 30% agar, protamine 50 μg/ml): 17 mm
Diameter (mm) of colistin inhibition zone ([2]; 30% agar, protamine 100 μg/ml): 16 mm
Disk diffusion (mm) ([2]; 30% agar, protamine 100 μg/ml): 18 mm
Disk diffusion (mm) ([2]; 30% agar, protamine 150 μg/ml): 18 mm
Disk diffusion (mm) ([2]; 30% agar, protamine 200 μg/ml): 20 mm
Disk diffusion (mm) ([2]; 30% agar, protamine 300 μg/ml): 6 mm
Disk diffusion (mm) ([2]; 30% agar, protamine 400 μg/ml): 6 mm
Disk diffusion (mm) ([2]; 30% agar, protamine 700 μg/ml): 6 mm
Disk diffusion (mm) [2, 3]: 6 mm
Diameter (mm) of colistin inhibition zone ([2]; 40% agar, protamine 100 μg/ml): 15 mm
Diameter (mm) of colistin inhibition zone ([2]; 50% agar, protamine 100 μg/ml): 14 mm
Diameter (mm) of colistin inhibition zone ([2]; 60% agar, protamine 100 μg/ml): 15 mm
Diameter (mm) of colistin inhibition zone ([2]; 70% agar, protamine 100 μg/ml): 14 mm
Diameter (mm) of colistin inhibition zone ([2]; 80% agar, protamine 100 μg/ml): 14 mm
Diameter (mm) of colistin inhibition zone ([2]; 90% agar, protamine 100 μg/ml): 13 mm
Disk diffusion (mm) ([2]; 100% agar, protamine 50 μg/ml): 14 mm
Diameter (mm) of colistin inhibition zone ([2]; 100% agar, protamine 100 μg/ml): 13 mm
Disk diffusion (mm) ([2]; 100% agar, protamine 100 μg/ml): 14 mm
Disk diffusion (mm) ([2]; 100% agar, protamine 150 μg/ml): 14 mm
Disk diffusion (mm) ([2]; 100% agar, protamine 200 μg/ml): 13 mm
Disk diffusion (mm) ([2]; 100% agar, protamine 300 μg/ml): 14 mm
Disk diffusion (mm) ([2]; 100% agar, protamine 400 μg/ml): 15 mm
Disk diffusion (mm) ([2]; 100% agar, protamine 700 μg/ml): 17 mm
Disk diffusion (mm) [2, 4]: 18 mm
Disk diffusion (mm) (ABA A14_S; [5]): 15 mm
Disk diffusion (mm) (ABA A14_S; [6]): 15 mm
Disk diffusion (mm) (ABA A14_S; [7]): 15 mm
Disk diffusion (mm) (KPN K4056_R; [5]): 12 mm
Disk diffusion (mm) (KPN K4056_R; [6]): 12 mm
Disk diffusion (mm) (KPN K4056_R; [7]): 10 mm
Disk diffusion (mm) (PAE P1401_S; [5]): 16 mm
Disk diffusion (mm) (PAE P1401_S; [6]): 15 mm
Disk diffusion (mm) (PAE P1401_S; [7]): 16 mm
Disk diffusion (mm) (PAE P1618_R; [5]): 12 mm
Disk diffusion (mm) (PAE P1618_R; [6]): 13 mm
Disk diffusion (mm) (PAE P1618_R; [7]): 13 mm
